Measurements taken from patent US8603493B2, “Carbosilane dendrimers, preparation method thereof and use of same” (Dendrico, S.L., priority 2005, dated 2013).

What was measured:
PBMC = assay: Transfection test of PBMC (confocal microscopy); type: cell-based, human; settings: after 48 hours
Protocol: After incubations with the mixtures containing fluorescent ODNs, dendriplexes, dendrimers or RPMI, the cells were treated for the subsequent acquisition of images in the conventional confocal or fluorescence microscope. The cells were adhered to glass slides with wells of 30 mm in diameter by Poly-L-lysine, (PLL) (Sigma®). To do this, the slides were preincubated with 30 μl of PLL during 2 hours in an incubator at 37° C. and 5% CO2. After this incubation, the excess PLL was washed with PBS. The cells from each treatment that were going to be adhered in the PLL were washed twice with PBS and were labelled for 1 minute with 0.8% Trypan Blue (Sigma®) to then show the […] cells. They were again washed twice with PBS. At that time the cells were added to the well (100,000/well), being disposed on the PLL during 1 hour in an incubator at 37° C. and 5% CO2. After this hour, the excess volume was washed with PBS and the cells were treated with recently prepared 3% paraformaldehyde (PFA) (within 2 weeks of its use) during 10 minutes. […] Finally, the preparation was mounted using a special medium for fluorescence (DAKO Cytomation Fluorescent Mounting Medium®) with antifading (designed to protect the sample from deterioration caused by lasers). […] After the capture of images, it was analysed using Leica® software. […]

U87-MG cells [1] = assay: Toxicity in U-87-MG cells: LDH in the supernatant
Source text: The concentrations and volumes of each one of these compounds were the same used in the test performed with MTT. The commercial kit Cytotoxicity Detection KitPLUS (LDH), from Roche Applied Science was used to determine lactate dehydrogenase, following the manufacturer's instructions.

U87-MG cells [2] = assay: Toxicity in U-87-MG cells: tests with MTT
Protocol: A test with U-87-MG cells was performed, wherein the effect of the dendrimers on the viability of said lines was studied at different times. To do this, 15000 (24 hour incubations), 7000 (3 day incubations) or 1500 (7 day incubations) cells per well were plated in 96-well plates. The cells were incubated with different concentrations (1 μM, 5 μM and 10 μM) either NN dendrimer or NN16 dendrimer, during 24 hours, 3 days and 7 days. […] Two different positive controls were also used: cells treated with 7% DMSO and cells treated with 1% Triton X-100.
In the case of Superfect, three doses were tested, the optimum dose recommended by the manufacturer (2.5 μl), a lower dose (1.25 μl) and another higher dose (5 μl). With regard to Polyfect, specifically designed for adherent cells, the three doses tested were: optimum dose (0.6 μl), lower dose (0.3 μl) and higher dose (1.2 μl).
After each corresponding incubation time, a test was performed with MTT analogous to that described in Example 38. At the absorbance value obtained in the untreated cells (C−) it was given the value of 1 and the moiety of the absorbencies produced was used to refer to it.

Row | Structure (SMILES) | fluorescence pattern after transfection with PPT dendriplexes (PBMC) | cytotoxicity (LDH), comparison (U87-MG cells [1]) | viability (MTT), untreated cells (C−) = 1 (U87-MG cells [2])
1 | C[Si](C)(CCCN)CCC[Si](C)(CCC[Si](C)(C)CCCN)CCC[Si](CCC[Si](C)(CCC[Si](C)(C)CCCN)CCC[Si](C)(C)CCCN)(CCC[Si](C)(CCC[Si](C)(C)CCCN)CCC[Si](C)(C)CCCN)CCC[Si](C)(CCC[Si](C)(C)CCCN)CCC[Si](C)(C)CCCN.Cl.Cl.Cl.Cl.Cl.Cl.Cl.Cl [ClNH4, 2G-[Si(CH2)3NH3^+Cl^−]8] | fluorescence pattern in aggregates | – | –
2 | CN(CCO[Si](C)(C)CCC[Si](C)(CCC[Si](CCC[Si](C)(CCC[Si](C)(C)OCCN(C)CC[N+](C)(C)C)CCC[Si](C)(C)OCCN(C)CC[N+](C)(C)C)(CCC[Si](C)(CCC[Si](C)(C)OCCN(C)CC[N+](C)(C)C)CCC[Si](C)(C)OCCN(C)CC[N+](C)(C)C)CCC[Si](C)(CCC[Si](C)(C)OCCN(C)CC[N+](C)(C)C)CCC[Si](C)(C)OCCN(C)CC[N+](C)(C)C)CCC[Si](C)(C)OCCN(C)CC[N+](C)(C)C)CC[N+](C)(C)C.[I-].[I-].[I-].[I-].[I-].[I-].[I-].[I-] [NN, 2G-[Si(O(CH2)2N(Me)(CH2)2NMe3^+I^−)]8] | – | greater cytotoxicity as their concentration increases | 0.6-0.75
